Data from patent US20240116985A1, “STAPLED PEPTIDES AND METHODS THEREOF” (priority 2020, published 2024).
Converted amounts (≈) assume the structure as drawn. Like-named read-outs stand apart in the source and are kept apart here.

Experiments:
Solubility in PBS = format: physicochemical
Method in brief: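 PBS sample ultracentrifuged; supernatant run on HPLC vs. 50 μM peptide in DMSO standard. Solubility = (PBS peak area / DMSO peak area) × 50 uM.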

CHI Log D procedure = format: physicochemical; conditions: for CHI Log D: pH 7.4; for chromatographic logD: pH 7.4, CHI Log D
[1] = target: T1, full-length beta-Catenin (Uniprot ID P35222) (Homo sapiens, UniProt P35222); test: Fluorescence polarization IC50 (beta-catenin / 5FAM-TCF4 10-53 competition); format: binding
T1 construct: 10 nM full-length beta-Catenin (Uniprot ID P35222)
T1 sequence (P35222 1-781): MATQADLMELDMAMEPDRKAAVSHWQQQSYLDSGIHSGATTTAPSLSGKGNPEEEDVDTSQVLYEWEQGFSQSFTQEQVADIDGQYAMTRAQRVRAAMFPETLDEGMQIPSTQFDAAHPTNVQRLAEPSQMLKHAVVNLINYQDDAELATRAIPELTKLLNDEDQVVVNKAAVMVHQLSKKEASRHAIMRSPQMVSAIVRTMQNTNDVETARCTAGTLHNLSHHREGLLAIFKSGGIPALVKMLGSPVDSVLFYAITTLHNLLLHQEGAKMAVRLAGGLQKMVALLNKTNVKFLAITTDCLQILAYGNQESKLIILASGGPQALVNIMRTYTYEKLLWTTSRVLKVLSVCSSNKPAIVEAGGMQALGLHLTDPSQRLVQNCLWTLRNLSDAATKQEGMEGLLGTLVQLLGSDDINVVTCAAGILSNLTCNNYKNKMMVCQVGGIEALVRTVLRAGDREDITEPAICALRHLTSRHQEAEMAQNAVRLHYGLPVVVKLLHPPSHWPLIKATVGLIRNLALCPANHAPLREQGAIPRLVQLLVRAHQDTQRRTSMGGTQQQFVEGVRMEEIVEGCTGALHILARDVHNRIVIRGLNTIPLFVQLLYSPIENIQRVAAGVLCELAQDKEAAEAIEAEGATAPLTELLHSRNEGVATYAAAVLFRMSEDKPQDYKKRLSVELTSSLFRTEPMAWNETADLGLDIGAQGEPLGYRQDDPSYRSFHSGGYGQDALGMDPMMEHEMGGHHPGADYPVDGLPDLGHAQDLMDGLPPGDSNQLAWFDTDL

[2] = fluorescence polarization, read-out: beta-Catenin FP IC50

SMILES | Solubility (Solubility in PBS) [µM] | CHI Log D (CHI Log D procedure) | IC50 [1, 2] [nM] | IC50 ([1]; read-out: FP EC50) [nM] | Solubility (Solubility in PBS; Solubility (uM)) [µM] | chromatographic logD (CHI Log D procedure)
CC[C@H](C)[C@@H]1NC(=O)[C@H](CC(=O)O)NC(=O)[C@]2(CC=CCCCC3(CCCC=CCCCCCC[C@@](C)(C(=O)N[C@@H](Cc4ccccc4)C(=O)N[C@@H](Cc4csc5ccccc45)C(=O)N[C@@H](CCC(N)=O)C(N)=O)NC(=O)[C@H](CCC(N)=O)NC(=O)[C@H](Cc4ccccc4)NC(=O)[C@H](C)NC(=O)[C@H](Cc4ccccc4)NC(=O)[C@H](CCC(=O)O)NC(=O)[C@H](CC(=O)O)NC3=O)NC1=O)CCCN2C(C)=O (stereo partly drawn) [I-649, Ac-PL3-Asp-Ile-B5-Asp-Glu-Phe-Ala-Phe-Gln-S8-Phe-BztA-Gln-NH2] | 41 (≈ 80.3 µg/mL) | 2.677 | 209 | 209 |  | 
CC[C@H](C)[C@@H]1NC(=O)[C@H](CC(=O)O)NC(=O)[C@]2(CC=CCCCC3(CCCC=CCCCCCC[C@@](C)(C(=O)N[C@@H](Cc4ccccc4)C(=O)N[C@@H](Cc4csc5ccccc45)C(=O)N[C@@H](CCC(N)=O)C(N)=O)NC(=O)[C@H](CCC(N)=O)NC(=O)[C@H](Cc4ccccc4)NC(=O)[C@H](C)NC(=O)[C@H](Cc4ccccc4)NC(=O)[C@H](CCC(=O)O)NC(=O)[C@H](CC(=O)O)NC3=O)NC1=O)CCCN2C(C)=O (stereo partly drawn) [I-650, Ac-PL3-Asp-Ile-B5-Asp-Glu-Phe-Ala-Phe-Gln-S8-Phe-BztA-Gln-NH2] | 45 (≈ 88.2 µg/mL) | 2.718 | 137 | 137 |  | 
CC[C@H](C)[C@@H]1NC(=O)[C@H](CC(=O)O)NC(=O)[C@]2(CC=CCCCC3(CCCC=CCCCCCC[C@@](C)(C(=O)N[C@@H](Cc4ccccc4)C(=O)N[C@@H](Cc4csc5ccccc45)C(=O)N[C@@H](CCC(N)=O)C(N)=O)NC(=O)[C@H](CCC(N)=O)NC(=O)[C@H](Cc4ccccc4)NC(=O)[C@H](C)NC(=O)[C@H](CO)NC(=O)[C@H](CCC(=O)O)NC(=O)[C@H](CC(=O)O)NC3=O)NC1=O)CCCN2C(C)=O (stereo partly drawn) [I-651, Ac-PL3-Asp-Ile-B5-Asp-Glu-Ser-Ala-Phe-Gln-S8-Phe-BztA-Gln-NH2] | 48 (≈ 91.2 µg/mL) | 2.167 | 186 | 186 |  | 
CC[C@H](C)[C@@H]1NC(=O)[C@H](CC(=O)O)NC(=O)[C@]2(CC=CCCCC3(CCCC=CCCCCCC[C@@](C)(C(=O)N[C@@H](Cc4ccccc4)C(=O)N[C@@H](Cc4csc5ccccc45)C(=O)N[C@@H](CCC(N)=O)C(N)=O)NC(=O)[C@H](CCC(N)=O)NC(=O)[C@H](Cc4ccccc4)NC(=O)[C@H](C)NC(=O)[C@H](CO)NC(=O)[C@H](CCC(=O)O)NC(=O)[C@H](CC(=O)O)NC3=O)NC1=O)CCCN2C(C)=O (stereo partly drawn) [I-652, Ac-PL3-Asp-Ile-B5-Asp-Glu-Ser-Ala-Phe-Gln-S8-Phe-BztA-Gln-NH2] | 48 (≈ 91.2 µg/mL) | 2.233 | 72 | 72 |  | 
CC[C@H](C)[C@@H]1NC(=O)[C@H](CC(=O)O)NC(=O)[C@]2(CC=CCCCC3(CCCC=CCCCCCC[C@@](C)(C(=O)N[C@@H](Cc4ccccc4)C(=O)N[C@@H](Cc4csc5ccccc45)C(=O)N[C@@H](CCC(N)=O)C(N)=O)NC(=O)[C@H](CCC(N)=O)NC(=O)[C@H](Cc4ccccc4)NC(=O)[C@H](C)NC(=O)[C@H](CCC(N)=O)NC(=O)[C@H](CCC(=O)O)NC(=O)[C@H](CC(=O)O)NC3=O)NC1=O)CCCN2C(C)=O (stereo partly drawn) [I-653, Ac-PL3-Asp-Ile-B5-Asp-Glu-Gln-Ala-Phe-Gln-S8-Phe-BztA-Gln-NH2] | 39 (≈ 75.7 µg/mL) | 2.07 | 108 | 108 |  | 
CC[C@H](C)[C@@H]1NC(=O)[C@H](CC(=O)O)NC(=O)[C@]2(CC=CCCCC3(CCCC=CCCCCCC[C@@](C)(C(=O)N[C@@H](Cc4ccccc4)C(=O)N[C@@H](Cc4csc5ccccc45)C(=O)N[C@@H](CCC(N)=O)C(N)=O)NC(=O)[C@H](CCC(N)=O)NC(=O)[C@H](Cc4ccccc4)NC(=O)[C@H](C)NC(=O)[C@H](Cc4c[nH]c5ccccc45)NC(=O)[C@H](CCC(=O)O)NC(=O)[C@H](CC(=O)O)NC3=O)NC1=O)CCCN2C(C)=O (stereo partly drawn) [I-655, Ac-PL3-Asp-Ile-B5-Asp-Glu-Trp-Ala-Phe-Gln-S8-Phe-BztA-Gln-NH2] |  |  | 183 |  | 46 (≈ 91.9 µg/mL) | 2.69
CCCC[C@@H]1NC(=O)[C@H](CCC(=O)O)NC(=O)[C@H](CC(=O)O)NC(=O)C2(CCCC=CCCCCCC[C@@](C)(C(=O)N[C@@H](Cc3ccccc3)C(=O)N[C@@H](Cc3csc4ccccc34)C(=O)N[C@@H](CCC(N)=O)C(N)=O)NC(=O)[C@H](CCC(N)=O)NC(=O)[C@H](Cc3ccccc3)NC(=O)[C@H](C)NC1=O)CCCC=CC[C@]1(CCCN1C(C)=O)C(=O)N[C@@H](CC(=O)O)C(=O)N[C@@H]([C@@H](C)CC)C(=O)N2 (stereo partly drawn) [I-656, Ac-PL3-Asp-Ile-B5-Asp-Glu-nLeu-Ala-Phe-Gln-S8-Phe-BztA-Gln-NH2] | 40 (≈ 77 µg/mL) | 2.736 | 73 | 73 |  | 
CCCC[C@@H]1NC(=O)[C@H](CCC(=O)O)NC(=O)[C@H](CC(=O)O)NC(=O)C2(CCCC=CCCCCCC[C@@](C)(C(=O)N[C@@H](Cc3ccccc3)C(=O)N[C@@H](Cc3csc4ccccc34)C(=O)N[C@@H](CCC(N)=O)C(N)=O)NC(=O)[C@H](CCC(N)=O)NC(=O)[C@H](Cc3ccccc3)NC(=O)[C@H](C)NC1=O)CCCC=CC[C@]1(CCCN1C(C)=O)C(=O)N[C@@H](CC(=O)O)C(=O)N[C@@H]([C@@H](C)CC)C(=O)N2 (stereo partly drawn) [I-657, Ac-PL3-Asp-Ile-B5-Asp-Glu-nLeu-Ala-Phe-Gln-S8-Phe-BztA-Gln-NH2] | 40 (≈ 77 µg/mL) | 2.767 | 46 | 46 |  | 
CC[C@H](C)[C@@H]1NC(=O)[C@H](CC(=O)O)NC(=O)[C@]2(CC=CCCCC3(CCCC=CCCCCCC[C@@](C)(C(=O)N[C@@H](Cc4ccccc4)C(=O)N[C@@H](Cc4csc5ccccc45)C(=O)N[C@@H](CCC(N)=O)C(N)=O)NC(=O)[C@H](CCC(N)=O)NC(=O)[C@H](Cc4ccccc4)NC(=O)[C@H](CC(C)C)NC(=O)[C@H](C)NC(=O)[C@H](CCC(=O)O)NC(=O)[C@H](CC(=O)O)NC3=O)NC1=O)CCCN2C(C)=O (stereo partly drawn) [I-658, Ac-PL3-Asp-Ile-B5-Asp-Glu-Ala-Leu-Phe-Gln-S8-Phe-BztA-Gln-NH2] | 48 (≈ 92.4 µg/mL) | 2.859 | 546 | 546 |  | 
CC[C@H](C)[C@@H]1NC(=O)[C@H](CC(=O)O)NC(=O)[C@]2(CC=CCCCC3(CCCC=CCCCCCC[C@@](C)(C(=O)N[C@@H](Cc4ccccc4)C(=O)N[C@@H](Cc4csc5ccccc45)C(=O)N[C@@H](CCC(N)=O)C(N)=O)NC(=O)[C@H](CCC(N)=O)NC(=O)[C@H](Cc4ccccc4)NC(=O)[C@H](CC(C)C)NC(=O)[C@H](C)NC(=O)[C@H](CCC(=O)O)NC(=O)[C@H](CC(=O)O)NC3=O)NC1=O)CCCN2C(C)=O (stereo partly drawn) [I-659, Ac-PL3-Asp-Ile-B5-Asp-Glu-Ala-Leu-Phe-Gln-S8-Phe-BztA-Gln-NH2] | 48 (≈ 92.4 µg/mL) | 2.903 | 430 | 430 |  | 
CC[C@H](C)[C@@H]1NC(=O)[C@H](CC(=O)O)NC(=O)[C@]2(CC=CCCCC3(CCCC=CCCCCCC[C@@](C)(C(=O)N[C@@H](Cc4ccccc4)C(=O)N[C@@H](Cc4csc5ccccc45)C(=O)N[C@@H](CCC(N)=O)C(N)=O)NC(=O)[C@H](CCC(N)=O)NC(=O)[C@H](Cc4ccccc4)NC(=O)[C@H](Cc4ccccc4)NC(=O)[C@H](C)NC(=O)[C@H](CCC(=O)O)NC(=O)[C@H](CC(=O)O)NC3=O)NC1=O)CCCN2C(C)=O (stereo partly drawn) [I-660, Ac-PL3-Asp-Ile-B5-Asp-Glu-Ala-Phe-Phe-Gln-S8-Phe-BztA-Gln-NH2] |  |  | 544 |  | 45 (≈ 88.2 µg/mL) | 2.75
CC[C@H](C)[C@@H]1NC(=O)[C@H](CC(=O)O)NC(=O)[C@]2(CC=CCCCC3(CCCC=CCCCCCC[C@@](C)(C(=O)N[C@@H](Cc4ccccc4)C(=O)N[C@@H](Cc4csc5ccccc45)C(=O)N[C@@H](CCC(N)=O)C(N)=O)NC(=O)[C@H](CCC(N)=O)NC(=O)[C@H](Cc4ccccc4)NC(=O)[C@H](CO)NC(=O)[C@H](C)NC(=O)[C@H](CCC(=O)O)NC(=O)[C@H](CC(=O)O)NC3=O)NC1=O)CCCN2C(C)=O (stereo partly drawn) [I-661, Ac-PL3-Asp-Ile-B5-Asp-Glu-Ala-Ser-Phe-Gln-S8-Phe-BztA-Gln-NH2] | 45 (≈ 85.5 µg/mL) | 2.099 | 45 | 45 |  | 
